{"source": "paper PMC10011554", "about": "“BET inhibitor trotabresib in heavily pretreated patients with solid tumors and diffuse large B-cell lymphomas” (Nature Communications, 2023)", "key": {"[1]": {"tested_on": "COH69 TNBC PDX-derived model", "set-up": "method as in Investigator's Brochure", "settings": "COH69, ref Investigator's Brochure; read-out: IC50, colony formation; cited from earlier work"}, "[2]": {"set-up": "method as in Investigator's Brochure", "settings": "rats, IV, non-radiolabeled, ref Investigator's Brochure; cited from earlier work"}, "[3]": {"tested_on": "TNBR3 TNBC PDX-derived model", "set-up": "method as in Investigator's Brochure", "settings": "TNBR3, ref Investigator's Brochure; read-out: IC50, colony formation; cited from earlier work"}, "U-2932 (DOX-R)": {"tested_on": "U-2932 (DOX-R)", "set-up": "method as in Report CC-90010-Pharm-1018", "settings": "Table 2, ref Report CC-90010-Pharm-1018, read-out: absolute IC50, proliferation; cited from earlier work"}, "[4]": {"experiment": "Plasma pharmacokinetics and food effect, part C", "type": "in vivo, human", "settings": "45 mg/day; for AUC(0-t) / Cmax / Tmax / AUC(0-inf) / half-life / Vd/F: human, plasma, oral; for Cmax: n = 15, read-out: Cmax, GM (% GCV); for Tmax: n = 15, read-out: Median tmax (range); for AUC(0-inf): n = 15, read-out: AUCinf, GM (% GCV); for half-life: n = 15, read-out: Mean t½ (% CV) (converted); for Vd/F: n = 15, read-out: Vss/F, GM (% GCV)", "procedure": "(§1) Response was assessed using Response Evaluation Criteria in Solid Tumors (RECIST) v1.1[54] in patients with solid tumors, International Working Group criteria in patients with DLBCL[55], and Response Assessment in Neuro-Oncology (RANO) criteria[56] in patients with CNS tumors (astrocytoma and glioblastoma). For patients with BCC, the response was assessed using a combination of radiological assessment of target lesions per RECIST v1.1, digital clinical photography assessed per World Health Organization (WHO) criteria, and punch biopsies to confirm CR. PK parameters assessed included Cmax, tmax, AUC, t½, apparent clearance (CL/F), and apparent volume of distribution (Vz/F).\nSerial blood samples for PK and pharmacodynamic analyses were collected for each dosing schedule after the first and last doses in cycle 1. Additional blood samples for assessment of the food effect on trotabresib PK in part C were collected during cycle 2. The food effect–evaluable population comprised all patients with adequate PK data to allow calculation of trotabresib AUC from time 0 (day 1) to day 22 from both the fed and fasted treatment periods and who had completed a 4-h post-dose fast during the fasted cycle or consumed the entire high-fat, high-calorie meal during the fed cycle and had received all trotabresib doses during both treatment periods."}, "R/R DLBCL": {"tested_on": "R/R DLBCL", "experiment": "Tumor response (International Working Group criteria), PFS and OS in phase I study, part B", "type": "in vivo, human", "procedure": "Secondary objectives were the preliminary efficacy of trotabresib in terms of clinical benefit rate (CR + PR + SD of ≥4 months’ duration), ORR (CR + PR), duration of response or SD, PFS, OS, and the PK of trotabresib. In addition, part C assessed the effects of food on the PK and the safety of trotabresib as a secondary objective. The pharmacodynamics of trotabresib were assessed as an exploratory objective.\nas §1\nBayesian logistic regression model based on dose-limiting toxicity was used to provide initial guidance for dose recommendations in the dose-escalation phase. The final decision was reached by considering the totality of safety, PK, and PD data. For binary efficacy endpoints, two-sided 95% Clopper–Pearson exact confidence intervals were provided. For time-to-event endpoints (PFS and OS), the median and 95% CI were estimated using the Kaplan–Meier method."}, "[5]": {"tested_on": "FOSL1 gene expression in U-87 glioblastoma cells", "set-up": "method as in Investigator's Brochure", "settings": "U-87 cells, ref Investigator's Brochure; read-out: IC50, inhibition of FOSL1 gene expression; cited from earlier work"}, "[6]": {"tested_on": "bacterial reverse mutation", "set-up": "method as in Investigator's Brochure", "settings": "non-GLP, ref Investigator's Brochure; cited from earlier work"}, "[7]": {"settings": "part B R/R DLBCL (N = 23), treated population"}}, "note": "Values joined by “and” are separate entries in the source; they are usually repeats but may differ in a detail not shown here. Equal values may be shown once. Read-outs that look alike come from different tables or passages of the source."}
{"compound": "Cn1cc(-c2cc(S(C)(=O)=O)ccc2OCC2CC2)c2ccccc2c1=O", "note": "[trotabresib]", "values": [{"measurement": "IC50", "setting": "[1]", "value": 70, "unit": "nM"}, {"measurement": "dose excreted intact in bile or urine, average", "setting": "[2]", "value": "0.9 % of the dose"}, {"measurement": "IC50", "setting": "[3]", "value": 80, "unit": "nM"}, {"measurement": "IC50", "setting": "U-2932 (DOX-R)", "value": 348, "unit": "nM"}, {"measurement": "Clss/F, GM (% GCV)", "setting": "[4]; day 4, fasted, n = 15", "value": "2.60 (25.89) L/h"}, {"measurement": "Median tmax (range)", "setting": "[4]; day 4, fasted, n = 15", "value": "1.50 (1.00–3.00) h"}, {"measurement": "Clss/F, GM (% GCV)", "setting": "[4]; day 4, fed, n = 15", "value": "2.65 (28.52) L/h"}, {"measurement": "AUC(0-t)", "setting": "[4]; cycle 1 day 1, fasted, n = 14, read-out: AUC0–24, GM (% GCV)", "value": 6650, "unit": "ng·h/mL"}, {"measurement": "Cmax", "setting": "[4]; cycle 1 day 1, fasted", "value": 560, "unit": "ng/mL"}, {"measurement": "Tmax", "setting": "[4]; cycle 1 day 1, fasted", "value": 1.55, "unit": "h"}, {"measurement": "AUC(0-t)", "setting": "[4]; day 4, fasted, n = 15, read-out: AUC0–24, GM (% GCV)", "value": 17300, "unit": "ng·h/mL"}, {"measurement": "AUC(0-inf)", "setting": "[4]; day 4, fasted", "value": 66500, "unit": "ng·h/mL"}, {"measurement": "AUC(0-t)", "setting": "[4]; day 4, fasted, n = 15, read-out: AUClast, GM (% GCV)", "value": 65100, "unit": "ng·h/mL"}, {"measurement": "Cmax", "setting": "[4]; day 4, fasted", "value": 1120, "unit": "ng/mL"}, {"measurement": "half-life", "setting": "[4]; day 4, fasted", "value": 69.1, "unit": "h"}, {"measurement": "Vd/F", "setting": "[4]; day 4, fasted", "value": 235, "unit": "L"}, {"measurement": "AUC(0-t)", "setting": "[4]; day 4, fed, n = 14, read-out: AUC0–24, GM (% GCV)", "value": 16800, "unit": "ng·h/mL"}, {"measurement": "AUC(0-inf)", "setting": "[4]; day 4, fed", "value": 67200, "unit": "ng·h/mL"}, {"measurement": "AUC(0-t)", "setting": "[4]; day 4, fed, n = 15, read-out: AUClast, GM (% GCV)", "value": 65600, "unit": "ng·h/mL"}, {"measurement": "Cmax", "setting": "[4]; day 4, fed", "value": 904, "unit": "ng/mL"}, {"measurement": "half-life", "setting": "[4]; day 4, fed", "value": 67.8, "unit": "h"}, {"measurement": "Tmax", "setting": "[4]; day 4, fed", "value": 4, "unit": "h"}, {"measurement": "Vd/F", "setting": "[4]; day 4, fed", "value": 228, "unit": "L"}, {"measurement": "reduction in target lesion size", "setting": "R/R DLBCL; one patient with GCB immunophenotype R/R DLBCL, after two cycles", "value": 57, "unit": "%"}, {"measurement": "Median OS (95% CI)", "setting": "R/R DLBCL; part B DLBCL (n = 23)", "value": "159 days and 159 (101–NE) days"}, {"measurement": "Median PFS (95% CI)", "setting": "R/R DLBCL; part B DLBCL (n = 23)", "value": "54 (49–65) days"}, {"measurement": "OS range", "setting": "R/R DLBCL; part B DLBCL (n = 23)", "value": "44 to 423", "unit": "days"}, {"measurement": "PFS range", "setting": "R/R DLBCL; part B DLBCL (n = 23)", "value": "12 to 423", "unit": "days"}, {"measurement": "best response CR", "setting": "R/R DLBCL; part B R/R DLBCL (N = 23)", "value": 8.7, "unit": "%"}, {"measurement": "best response PD", "setting": "R/R DLBCL; part B R/R DLBCL (N = 23)", "value": 43.5, "unit": "%"}, {"measurement": "best response PR", "setting": "R/R DLBCL; part B R/R DLBCL (N = 23)", "value": 4.3, "unit": "%"}, {"measurement": "best response SD", "setting": "R/R DLBCL; part B R/R DLBCL (N = 23)", "value": 8.7, "unit": "%"}, {"measurement": "CBR", "setting": "R/R DLBCL; [7]", "value": 17.4, "unit": "%"}, {"measurement": "ORR", "setting": "R/R DLBCL; [7]", "value": 13.0, "unit": "%"}, {"measurement": "total treatment duration", "setting": "R/R DLBCL; part B, one patient with transformed DLBCL, ongoing at cycle 17", "value": 1.6, "unit": "years"}, {"measurement": "IC50", "setting": "[5]", "value": 30, "unit": "nM"}, {"measurement": "mutagenicity (Ames)", "setting": "[6]", "value": "non-mutagenic"}]}
